Reference: ChEMBL document CHEMBL1201862, “PubChem BioAssay data set” (2004)
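Following 48 hours of exposure in 96-well plates, responses at five concentrations were used to interpolate endpoints linearly. Here, GI50 denotes the concentration required for 50% inhibition of growth.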 Active and inactive are the calls of the source. Cut-off read from the data, not from the text of the source: active = GI50 up to about 1.1 µM and inactive = higher.

Legend:
Experiment in all cases: NCI-60 cell line screen, 48 h
[1] = tested on: 786-0
[2] = tested on: A498
[3] = tested on: A549
[4] = tested on: ACHN
[5] = tested on: CAKI-1
[6] = tested on: CCRF-CEM
[7] = tested on: COLO 205
[8] = tested on: DLD-1
[9] = tested on: DMS-114
[10] = tested on: DMS-273
[11] = tested on: EKVX
[12] = tested on: HCC 2998
[13] = tested on: HCT-116
[14] = tested on: HCT-15
[15] = tested on: HL-60
[16] = tested on: HOP-62
[17] = tested on: HOP-92
[18] = tested on: IGROV-1
[19] = tested on: K562
[20] = tested on: KM-20L2
[21] = tested on: KM12
[22] = tested on: LOX IMVI
[23] = tested on: LXFL 529
[24] = tested on: M14
[25] = tested on: M19-MEL
[26] = tested on: MOLT-4
[27] = tested on: Malme-3M
[28] = tested on: NCI-H23
[29] = tested on: NCI-H460
[30] = tested on: NCI-H522
[31] = tested on: OVCAR-3
[32] = tested on: OVCAR-4
[33] = tested on: OVCAR-5
[34] = tested on: OVCAR-8
[35] = tested on: RPMI-8226
[36] = tested on: SF-268
[37] = tested on: SF-539
[38] = tested on: SK-MEL-28
[39] = tested on: SK-MEL-2
[40] = tested on: SK-MEL-5
[41] = tested on: SK-OV-3
[42] = tested on: SN12C
[43] = tested on: SNB-19
[44] = tested on: SNB-75
[45] = tested on: SNB-78
[46] = tested on: SR
[47] = tested on: SW-620
[48] = tested on: TK-10
[49] = tested on: U-251
[50] = tested on: UACC-257
[51] = tested on: UACC-62
[52] = tested on: UO-31
[53] = tested on: XF498
[54] = tested on: HT-29
[55] = tested on: NCI-H226
[56] = tested on: RXF 393
[57] = tested on: SF-295

Cc1ccc(S(=O)(=O)c2c3nc4ccccc4nc3n3c2[nH]c2ccccc23)cc1
GI50 [1]: > 100 µM (inactive)
GI50 [2]: 18.7 µM (inactive)
GI50 [3]: > 100 µM (inactive)
GI50 [4]: > 100 µM (inactive)
GI50 [5]: > 100 µM (inactive)
GI50 [6]: > 100 µM (inactive)
GI50 [7]: > 100 µM (inactive)
GI50 [8]: > 100 µM (inactive)
GI50 [9]: > 100 µM (inactive)
GI50 [10]: 88.7 µM (inactive)
GI50 [11]: > 100 µM (inactive)
GI50 [12]: > 100 µM (inactive)
GI50 [13]: > 100 µM (inactive)
GI50 [14]: > 100 µM
GI50 [15]: > 100 µM (inactive)
GI50 [16]: > 100 µM (inactive)
GI50 [17]: > 100 µM (inactive)
GI50 [18]: 8.13 µM (inactive)
GI50 [19]: > 100 µM (inactive)
GI50 [20]: > 100 µM (inactive)
GI50 [21]: 58.1 µM (inactive)
GI50 [22]: > 100 µM (inactive)
GI50 [23]: > 100 µM (inactive)
GI50 [24]: > 100 µM (inactive)
GI50 [25]: > 100 µM (inactive)
GI50 [26]: > 100 µM (inactive)
GI50 [27]: > 100 µM (inactive)
GI50 [28]: > 100 µM (inactive)
GI50 [29]: > 100 µM (inactive)
GI50 [30]: > 100 µM (inactive)
GI50 [31]: > 100 µM (inactive)
GI50 [32]: > 100 µM (inactive)
GI50 [33]: > 100 µM (inactive)
GI50 [34]: > 100 µM (inactive)
GI50 [35]: > 100 µM (inactive)
GI50 [36]: > 100 µM (inactive)
GI50 [37]: > 100 µM (inactive)
GI50 [38]: > 100 µM (inactive)
GI50 [39]: > 100 µM (inactive)
GI50 [40]: > 100 µM (inactive)
GI50 [41]: > 100 µM (inactive)
GI50 [42]: > 100 µM (inactive)
GI50 [43]: > 100 µM (inactive)
GI50 [44]: > 100 µM (inactive)
GI50 [45]: > 100 µM (inactive)
GI50 [46]: > 100 µM (inactive)
GI50 [47]: > 100 µM (inactive)
GI50 [48]: > 100 µM (inactive)
GI50 [49]: > 100 µM (inactive)
GI50 [50]: > 100 µM (inactive)
GI50 [51]: 25.7 µM (inactive)
GI50 [52]: > 100 µM (inactive)
GI50 [53]: > 100 µM (inactive)

CC1=C(C#N)C(N)=C2C(C)=C(C#N)C(N)=C12
GI50 [1]: > 100 µM (inactive)
GI50 [2]: > 100 µM (inactive)
GI50 [3]: > 100 µM (inactive)
GI50 [5]: > 100 µM (inactive)
GI50 [6]: > 100 µM (inactive)
GI50 [7]: > 100 µM (inactive)
GI50 [8]: > 100 µM (inactive)
GI50 [9]: > 100 µM (inactive)
GI50 [10]: > 100 µM (inactive)
GI50 [11]: > 100 µM (inactive)
GI50 [12]: > 100 µM (inactive)
GI50 [13]: > 100 µM (inactive)
GI50 [14]: > 100 µM
GI50 [15]: > 100 µM (inactive)
GI50 [16]: > 100 µM (inactive)
GI50 [17]: > 100 µM (inactive)
GI50 [54]: > 100 µM (inactive)
GI50 [18]: > 100 µM (inactive)
GI50 [19]: > 100 µM (inactive)
GI50 [20]: > 100 µM (inactive)
GI50 [21]: > 100 µM (inactive)
GI50 [22]: > 100 µM (inactive)
GI50 [23]: > 100 µM (inactive)
GI50 [24]: > 100 µM (inactive)
GI50 [25]: > 100 µM (inactive)
GI50 [26]: > 100 µM (inactive)
GI50 [27]: > 100 µM (inactive)
GI50 [55]: > 100 µM (inactive)
GI50 [28]: > 100 µM (inactive)
GI50 [29]: > 100 µM (inactive)
GI50 [30]: > 100 µM (inactive)
GI50 [31]: > 100 µM (inactive)
GI50 [32]: > 100 µM (inactive)
GI50 [33]: > 100 µM (inactive)
GI50 [34]: > 100 µM (inactive)
GI50 [35]: > 100 µM (inactive)
GI50 [56]: > 100 µM (inactive)
GI50 [36]: > 100 µM (inactive)
GI50 [57]: > 100 µM (inactive)
GI50 [37]: > 100 µM (inactive)
GI50 [40]: > 100 µM (inactive)
GI50 [41]: > 100 µM (inactive)
GI50 [42]: > 100 µM (inactive)
GI50 [43]: > 100 µM (inactive)
GI50 [44]: > 100 µM (inactive)
GI50 [45]: > 100 µM (inactive)
GI50 [46]: > 100 µM (inactive)
GI50 [47]: > 100 µM (inactive)
GI50 [48]: > 100 µM (inactive)
GI50 [49]: > 100 µM (inactive)
GI50 [50]: > 100 µM (inactive)
GI50 [51]: > 100 µM (inactive)
GI50 [52]: > 100 µM (inactive)
GI50 [53]: > 100 µM (inactive)
